Test results as given in PMC12765108, “Establishing selectivity of FAK-paxillin PPI inhibitor using pulldown proteomics and a focal adhesion protein selectivity panel” (Biochemistry and Biophysics Reports, 2025).
“Also recorded” adds a separate entry of the source.

How the values were obtained:
[1] = test system: FA selectivity panel (VinT, VinH, PARVA, PARVB, Talin-1 Rod 8, FAK FAT); assay: SPR focal adhesion selectivity panel; type: binding
From the text: (§1) Vinculin Tail (VinT) (a.a. 811–1066), Vinculin Head (VinH) (a.a. 1–258), Actopaxin, (PARVA complete protein), beta-parvin (PARVB, total protein), FAK FAT (a.a. 892–1052), and Talin-1 Rod 8 (a.a. 1453–1580) were purified in E. coli BL21 DE3 using 6X-Histag TOPO-100 plasmid constructs with AmpR gene (ThermoFisher). Purification procedures were as previously described. Proteins were purified using NiNTA affinity chromatography (ThermoFisher) followed by size-exclusion chromatography using the Akta Pump 900 system and HiLoad 26/600 SuperDex 75 pg column. Major peaks (Unicorn 3.0 software) were validated using SDS-PAGE stain free imaging (Biorad).
SPR was performed on a Sartorius Pioneer FE instrument as previously described. Briefly, biotinylated UA-1907 was immobilized onto Streptavidin Dextran Hydrogel (SADH) biosensor at a RU = 50. Proteins were flowed over at 75 μL/min in running buffer (50 mM Tris pH 8.0, 200 mM NaCl, 5 % glycerol) from 2.5 μM to 4.9 nM. Equilibrium dissociation constant (KD) was calculated using Qdat software and 1:1 kinetic binding model.

FAK FAT domain = test system: FAK FAT domain; parameters: method as in PMID 40021642; details: ref [5]; cited from earlier work
FAK FAT (a.a. 892–1052) = biological target: T1, FAK FAT (a.a. 892–1052) (Homo sapiens, UniProt Q05397); assay: SPR direct binding; details: 4.9 nM to […]
T1 construct: FAK FAT (a.a. 892–1052); 6X His (N); made in house; host or cells: E. coli BL21 DE3
T1 sequence (Q05397 892-1052): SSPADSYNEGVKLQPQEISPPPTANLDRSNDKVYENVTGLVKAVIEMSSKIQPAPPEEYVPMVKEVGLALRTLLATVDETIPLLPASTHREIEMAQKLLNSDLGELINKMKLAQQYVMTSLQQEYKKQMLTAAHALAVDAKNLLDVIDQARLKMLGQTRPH
From the text: as §1
SPR was performed on a Sartorius Pioneer FE instrument as previously described. Briefly, biotinylated UA-1907 was immobilized onto Streptavidin Dextran Hydrogel (SADH) biosensor at a RU = 50. […] Equilibrium dissociation constant (KD) was calculated using Qdat software and 1:1 kinetic binding model.

Paxillin = assay: Pulldown (MS and WB), SK-MEL-147 lysate; type: binding
Experimental: 3000ug of SK-MEL-147 lysates were precleared in 60uL agarose beads for 1 h at 4C. […] Beads were washed with NP40 buffer without inhibitors and proteins were eluted using 63 mM Tris pH 6.8 and 5 % SDS. Elution proteins underwent trypsin digestion and were analyzed in nanoLC-MS/MS at the UA Biological Mass Spectroscopy Core using the Thermo Q Exactive Orbitrap mass spectrometer (MS) coupled to the Thermo Vanquish Neo nano-LC system. Peptide sequences were determined, correlated to SwissProt protein sequences, and normalized in Scaffold Proteomics Discoverer.
Protein Label Free Quantification (LFQ) was represented by Normalized Total Spectra. Fold Enrichment (FE) was calculated using Eq. (1): FE=(PulldownLFQ−EthanolamineControlBeadLFQ)/TotalLysateLFQ
Bead elutions were ran on a 4–20 % TGX Stain Free Gel and imaged via Stain Free Imaging (ChemDoc Biorad Imager) before transfer onto a PVDF membrane (TurboTransfer High MW). Blots were blocked using 5 % BSA in TBS-0.1 % Tween-20. Each primary antibody was used in 1:1000 dilution and incubated overnight at 4C. Blots were washed 3X and incubated in 1:5000 secondary antibody at RT for 1 h. Blots were incubated with ECL reagent (Biorad) for 5 min. Blots were imaged utilizing ChemDoc Biorad Imager for 3 min taking 60 total images. Results can be found in Supplementary Fig. 2.

FAK-paxillin interaction = details: cellular and biochemical systems; ref [5]; cited from earlier work
kinome = details: ref [5]; cited from earlier work
From the text: (§2) The most significant finding in this manuscript is the nanomolar, highly specific affinity (Fig. 4g) between UA-1907 and the FAK FAT domain by SPR, but not […], PARVA, PARVB, VinH, and VinT. As previously discussed, the challenge of targeting FAK historically has been the off-target effects of ATP-competitive kinase inhibitors. […] The high selectivity of the FAT domain t ...

[2] = ref [5]; cited from earlier work
From the text: as §2

## CC(=O)N[C@@H](CC(N)=O)C(=O)N[C@@H](CC(C)C)C(=O)N[C@]1(C)CCCCCC/C=C/CCC[C@@](C)(C(=O)N[C@@H](CCC(=O)O)C(=O)N[C@@H](CC(C)C)C(=O)N[C@@H](CC(N)=O)C(N)=O)NC(=O)[C@H](CC(C)C)NC(=O)[C@H](CC(C)C)NC(=O)[C@H](CCCNC(=N)N)NC(=O)[C@H](CC(=O)O)NC(=O)[C@H](CC(C)C)NC(=O)[C@H](CCC(=O)O)NC1=O [UA-1907]
[1]
  binding selectivity across panel: only the FAK-FAT domain has a nanomolar binding affinity (KD) for UA-1907, whereas other FA proteins have no binding; also recorded: strong nanomolar binding affinity to the FAT domain of FAK, while minimal affinity to other FA proteins
FAK FAT domain
  binding to FAK FAT domain: binds the FAK FAT domain with high affinity
FAK FAT (a.a. 892–1052)
  binding: bound to UA-1907 in a dose-dependent manner
Paxillin
  paxillin pulldown: paxillin did not pulldown with UA-1907
FAK-paxillin interaction
  inhibition of FAK-paxillin interaction: dose-dependently inhibits the FAK-paxillin interaction

## CNC(=O)c1ccc(Nc2ncc(C(F)(F)F)c(NCc3nccnc3N(C)S(C)(=O)=O)n2)cc1 [defactinib]
kinome
  kinome selectivity: poor kinome selectivity
[2]
  cellular toxicity: high cellular toxicity
